# Results taken from patent publication US20190330224A1, “ACC INHIBITORS AND USES THEREOF” (Gilead Apollo, LLC, priority 2015, published 2019).
# Legend:
# [1] = compound concentration 10 ppm, foliar spray, evaluated 7 days after inoculation
# [2] = target: Human ACC2 (Homo sapiens, UniProt O00763); test: In vitro ACC2 inhibition assay (ADP-Glo), human ACC2; type: biochemical; details: 5 nM ACC2, 20 μM ATP, 20 μM acetyl-CoA
# [3] = system: C. albicans ATCC 90028; test: Anti-Fungal Activity Assay (broth microtiter MIC), C. albicans; type: cell-based, Candida albicans; details: Candida albicans, ATCC90028, 48 h, 3 replicates; MIC recorded at 48 h; read-out: MIC C. albicans ATCC 90028
# Procedure, shortened: (§1)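 Susceptibility testing used direct colony suspensions in RPMI 1640+MOPS from Sabouraud dextrose agar grown at 35° C. Endpoints were visual MICs at 48 h under CLSI M27-A3 microtiter conditions, plus a 24 h reading for soraphen.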
# [4] = system: C. krusei ATCC 6258; test: Anti-Fungal Activity Assay (broth microtiter MIC), C. krusei; type: cell-based, Candida krusei; details: Pichia kudriavzevii, ATCC6258, 48 h, 3 replicates; MIC recorded at 48 h; read-out: MIC C. krusei ATCC 6258
# Procedure, shortened: as §1
# [5] = system: C. parapsilosis ATCC 22019; test: Anti-Fungal Activity Assay (broth microtiter MIC), C. parapsilosis; type: cell-based, Candida parapsilosis; details: Lodderomyces parapsilosis, ATCC22019, 48 h, 3 replicates; MIC recorded at 48 h; read-out: MIC C. parapsilosis ATCC 22019
# Procedure, shortened: as §1
# [6] = system: Botrtyis cinerea (Bc); test: Growth inhibition assay of fungal pathogens, Bc; type: cell-based; details: 48 hours; read-out: Concentration at 90% Inhibition, Bc
# Procedure, shortened: (§2)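 Spores in 17% V8 liquid medium were exposed to compound at final 50, 10 and 2 ppm or 2, 0.4 and 0.08 ppm with 2% DMSO. After 48 h, OD600 (blank-subtracted) and visual ratings were compared with the 2% DMSO control to give percent growth inhibition.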
# [7] = system: Collectotrichum graminicola (Cg); test: Growth inhibition assay of fungal pathogens, Cg; type: cell-based; details: 48 hours; read-out: Concentration at 90% Inhibition, Cg
# Procedure, shortened: as §2
# [8] = system: Diplodia maydis (Dm); test: Growth inhibition assay of fungal pathogens, Dm; type: cell-based; details: Stenocarpella maydis; 48 hours; read-out: Concentration at 90% Inhibition, Dm
# Procedure, shortened: as §2
# [9] = system: Fusarium moniliforme (Fm); test: Growth inhibition assay of fungal pathogens, Fm; type: cell-based; details: Fusarium verticillioides; 48 hours; read-out: Concentration at 90% Inhibition, Fm
# Procedure, shortened: as §2
# [10] = system: Fusarium virguliforme (Fv); test: Growth inhibition assay of fungal pathogens, Fv; type: cell-based; details: 48 hours, read-out: Concentration at 90% Inhibition, Fv
# Procedure, shortened: as §2
# [11] = system: Phytophthora capsici (Pc); test: Growth inhibition assay of fungal pathogens, Pc; type: cell-based; details: 48 hours, read-out: Concentration at 90% Inhibition, Pc
# Procedure, shortened: as §2
# [12] = system: Rhizoctonia solani (Rs); test: Growth inhibition assay of fungal pathogens, Rs; type: cell-based; details: 48 hours, read-out: Concentration at 90% Inhibition, Rs
# [13] = system: Septoria tritici (St); test: Growth inhibition assay of fungal pathogens, St; type: cell-based; details: Zymoseptoria tritici; 48 hours; read-out: Concentration at 90% Inhibition, St
# Procedure, shortened: as §2
# [14] = system: Blumeria graminis f sp. hordei; test: Foliar protection test, barley powdery mildew control; type: in vivo, Blumeria graminis f sp. hordei on Hordeum vulgare cv. Perry; details: 168 h, compound concentration 50 ppm, foliar spray, evaluated 7 days after inoculation, read-out: Barley Powdery Mildew Control at 50 ppm
# Procedure, shortened: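 Barley cv. Perry at first true leaf (6 days) sprayed to wetness on both leaf sides with compound in 5% acetone/0.005% Tween 80, typically at 200, 100, 50, 10 or 2 ppm. Inoculated 24 h later by shaking spores from colonized plants; kept at 20-22 °C, 70% RH. Mildew colonization scored 7 days later as percent control.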
# [15] = target: Fungal ACC2 (UniProt Q00955); details: read-out: Fungal ACC2 (IC50, in vitro ACC2 inhibition)
# Fungal ACC2, sequence (Q00955 whole entry): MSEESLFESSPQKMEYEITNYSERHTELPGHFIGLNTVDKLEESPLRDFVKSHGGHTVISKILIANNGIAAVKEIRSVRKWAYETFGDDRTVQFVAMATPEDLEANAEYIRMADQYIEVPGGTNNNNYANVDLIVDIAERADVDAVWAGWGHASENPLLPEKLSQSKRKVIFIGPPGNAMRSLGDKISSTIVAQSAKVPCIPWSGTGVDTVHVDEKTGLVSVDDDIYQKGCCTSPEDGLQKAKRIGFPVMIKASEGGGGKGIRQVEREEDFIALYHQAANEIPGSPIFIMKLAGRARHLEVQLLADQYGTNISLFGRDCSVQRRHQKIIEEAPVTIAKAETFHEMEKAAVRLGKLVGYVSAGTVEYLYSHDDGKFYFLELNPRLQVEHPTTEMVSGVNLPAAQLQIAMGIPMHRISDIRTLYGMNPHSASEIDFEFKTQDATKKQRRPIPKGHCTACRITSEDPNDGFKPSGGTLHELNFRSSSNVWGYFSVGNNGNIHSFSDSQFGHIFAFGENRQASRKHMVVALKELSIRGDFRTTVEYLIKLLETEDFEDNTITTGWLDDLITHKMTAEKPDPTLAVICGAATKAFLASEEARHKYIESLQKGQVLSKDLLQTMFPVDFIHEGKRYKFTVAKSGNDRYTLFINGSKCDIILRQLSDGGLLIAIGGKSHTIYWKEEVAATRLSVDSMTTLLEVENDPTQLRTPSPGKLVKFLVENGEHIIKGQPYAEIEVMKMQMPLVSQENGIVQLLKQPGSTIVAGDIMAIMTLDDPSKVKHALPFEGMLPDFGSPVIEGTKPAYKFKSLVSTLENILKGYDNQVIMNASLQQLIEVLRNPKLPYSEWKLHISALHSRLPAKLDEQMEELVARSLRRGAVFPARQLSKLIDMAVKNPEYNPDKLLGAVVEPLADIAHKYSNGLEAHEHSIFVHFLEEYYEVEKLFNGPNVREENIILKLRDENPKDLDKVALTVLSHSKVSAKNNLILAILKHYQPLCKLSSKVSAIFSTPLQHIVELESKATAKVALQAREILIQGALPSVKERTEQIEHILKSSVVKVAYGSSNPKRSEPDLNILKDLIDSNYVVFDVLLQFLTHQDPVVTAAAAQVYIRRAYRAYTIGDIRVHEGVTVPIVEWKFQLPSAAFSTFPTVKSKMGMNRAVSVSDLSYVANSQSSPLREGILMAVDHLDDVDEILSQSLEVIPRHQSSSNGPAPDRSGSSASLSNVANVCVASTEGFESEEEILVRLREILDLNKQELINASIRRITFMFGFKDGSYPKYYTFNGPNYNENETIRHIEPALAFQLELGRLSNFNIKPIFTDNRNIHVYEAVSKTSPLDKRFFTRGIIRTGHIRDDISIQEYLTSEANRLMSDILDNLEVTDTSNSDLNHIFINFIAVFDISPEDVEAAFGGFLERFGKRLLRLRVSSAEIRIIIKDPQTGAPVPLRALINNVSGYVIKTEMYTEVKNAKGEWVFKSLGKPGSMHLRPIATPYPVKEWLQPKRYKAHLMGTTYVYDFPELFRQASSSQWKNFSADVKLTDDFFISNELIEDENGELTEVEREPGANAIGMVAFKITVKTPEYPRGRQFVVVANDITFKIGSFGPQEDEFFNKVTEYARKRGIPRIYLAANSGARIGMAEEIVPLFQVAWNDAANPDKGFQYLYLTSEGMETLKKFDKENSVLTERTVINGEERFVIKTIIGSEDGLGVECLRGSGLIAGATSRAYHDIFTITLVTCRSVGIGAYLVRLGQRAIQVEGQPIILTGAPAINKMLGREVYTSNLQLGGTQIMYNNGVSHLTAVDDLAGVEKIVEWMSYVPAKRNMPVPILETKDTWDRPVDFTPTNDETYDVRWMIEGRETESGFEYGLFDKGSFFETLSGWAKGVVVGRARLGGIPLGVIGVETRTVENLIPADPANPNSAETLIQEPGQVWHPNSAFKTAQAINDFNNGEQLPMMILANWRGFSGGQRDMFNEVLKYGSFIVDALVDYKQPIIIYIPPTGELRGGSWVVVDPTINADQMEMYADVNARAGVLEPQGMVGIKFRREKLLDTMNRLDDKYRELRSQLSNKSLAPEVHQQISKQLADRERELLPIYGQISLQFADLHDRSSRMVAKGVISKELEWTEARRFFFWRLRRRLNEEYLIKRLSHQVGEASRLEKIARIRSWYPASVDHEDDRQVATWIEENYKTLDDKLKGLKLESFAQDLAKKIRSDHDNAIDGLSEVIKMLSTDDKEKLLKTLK
# Human ACC2, sequence (O00763 whole entry): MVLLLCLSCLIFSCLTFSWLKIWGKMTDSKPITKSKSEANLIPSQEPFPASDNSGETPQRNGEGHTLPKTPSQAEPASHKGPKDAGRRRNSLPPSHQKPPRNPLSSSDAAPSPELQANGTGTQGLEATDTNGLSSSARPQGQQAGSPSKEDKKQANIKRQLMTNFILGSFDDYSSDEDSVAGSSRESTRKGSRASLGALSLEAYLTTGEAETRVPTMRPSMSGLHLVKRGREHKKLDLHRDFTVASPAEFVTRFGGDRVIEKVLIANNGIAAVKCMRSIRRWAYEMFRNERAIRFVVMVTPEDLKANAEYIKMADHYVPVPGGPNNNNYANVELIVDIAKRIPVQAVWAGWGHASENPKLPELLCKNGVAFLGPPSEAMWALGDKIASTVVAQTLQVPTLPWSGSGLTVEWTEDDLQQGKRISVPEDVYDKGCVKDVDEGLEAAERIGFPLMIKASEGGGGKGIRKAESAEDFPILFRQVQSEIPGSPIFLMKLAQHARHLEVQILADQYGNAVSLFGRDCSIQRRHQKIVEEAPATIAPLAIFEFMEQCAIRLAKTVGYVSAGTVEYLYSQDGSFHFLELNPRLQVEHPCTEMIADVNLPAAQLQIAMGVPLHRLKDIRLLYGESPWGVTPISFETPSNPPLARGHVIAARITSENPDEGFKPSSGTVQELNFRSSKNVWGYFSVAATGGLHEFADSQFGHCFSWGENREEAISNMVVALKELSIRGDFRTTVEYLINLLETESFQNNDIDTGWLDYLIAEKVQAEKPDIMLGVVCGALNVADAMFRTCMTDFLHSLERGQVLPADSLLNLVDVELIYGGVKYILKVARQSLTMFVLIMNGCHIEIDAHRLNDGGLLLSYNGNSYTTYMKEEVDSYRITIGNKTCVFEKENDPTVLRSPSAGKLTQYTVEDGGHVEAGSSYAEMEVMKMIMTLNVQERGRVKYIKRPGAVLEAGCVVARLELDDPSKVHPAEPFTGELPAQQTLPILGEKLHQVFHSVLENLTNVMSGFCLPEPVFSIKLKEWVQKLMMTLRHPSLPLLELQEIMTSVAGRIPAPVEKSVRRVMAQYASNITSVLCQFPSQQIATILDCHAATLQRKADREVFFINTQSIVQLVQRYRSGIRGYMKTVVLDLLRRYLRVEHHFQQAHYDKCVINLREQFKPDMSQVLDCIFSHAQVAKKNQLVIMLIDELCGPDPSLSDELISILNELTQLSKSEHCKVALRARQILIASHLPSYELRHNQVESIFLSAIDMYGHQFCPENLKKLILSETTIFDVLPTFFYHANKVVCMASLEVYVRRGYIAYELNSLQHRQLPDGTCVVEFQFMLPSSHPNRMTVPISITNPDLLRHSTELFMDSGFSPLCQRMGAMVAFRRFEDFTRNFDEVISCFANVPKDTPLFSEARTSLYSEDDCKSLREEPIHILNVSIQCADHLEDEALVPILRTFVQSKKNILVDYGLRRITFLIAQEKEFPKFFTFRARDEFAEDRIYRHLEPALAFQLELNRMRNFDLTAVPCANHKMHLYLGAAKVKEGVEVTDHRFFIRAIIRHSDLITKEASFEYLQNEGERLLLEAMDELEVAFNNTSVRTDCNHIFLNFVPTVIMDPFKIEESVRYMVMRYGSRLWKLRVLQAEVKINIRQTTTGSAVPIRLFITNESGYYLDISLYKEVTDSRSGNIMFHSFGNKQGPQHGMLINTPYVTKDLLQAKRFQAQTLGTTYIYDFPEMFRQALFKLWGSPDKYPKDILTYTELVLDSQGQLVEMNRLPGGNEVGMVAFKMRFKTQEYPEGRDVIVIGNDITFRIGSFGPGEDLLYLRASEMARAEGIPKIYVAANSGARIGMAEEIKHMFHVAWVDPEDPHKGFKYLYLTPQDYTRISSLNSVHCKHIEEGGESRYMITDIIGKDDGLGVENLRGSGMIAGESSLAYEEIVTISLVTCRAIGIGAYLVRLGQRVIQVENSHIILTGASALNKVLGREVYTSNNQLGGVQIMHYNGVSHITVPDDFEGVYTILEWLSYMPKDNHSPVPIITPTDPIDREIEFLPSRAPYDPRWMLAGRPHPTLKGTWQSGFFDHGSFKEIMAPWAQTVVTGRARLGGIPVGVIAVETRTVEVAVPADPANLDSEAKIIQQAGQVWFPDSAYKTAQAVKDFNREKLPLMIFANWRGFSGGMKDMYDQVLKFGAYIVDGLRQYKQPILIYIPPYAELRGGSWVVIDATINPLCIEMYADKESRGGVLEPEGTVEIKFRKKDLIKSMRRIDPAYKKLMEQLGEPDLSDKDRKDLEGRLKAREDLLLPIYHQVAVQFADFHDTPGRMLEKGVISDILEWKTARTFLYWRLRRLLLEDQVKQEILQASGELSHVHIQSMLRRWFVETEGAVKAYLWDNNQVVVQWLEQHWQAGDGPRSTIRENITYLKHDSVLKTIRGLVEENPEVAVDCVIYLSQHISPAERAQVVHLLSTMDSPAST
Structure (SMILES),Barley Powdery Mildew Control at 10 ppm [1],IC50 [2] [nM],MIC [3] [µg/mL],MIC [4] [µg/mL],MIC [5] [µg/mL],IC90 [6] [µg/mL],IC90 [7] [µg/mL],IC90 [8] [µg/mL],IC90 [9] [µg/mL],IC90 [10] [µg/mL],IC90 [11] [µg/mL],IC90 [12] [µg/mL],IC90 [13] [µg/mL],pest or weed control at 50 ppm [14] [%],IC50 [15] [nM]
"COCCO[C@@H](Cn1c(=O)n([C@@H]2CCN(C)C2=O)c(=O)c2c(C)c(-n3nccn3)sc21)c1cc(F)ccc1OC [Compound I-28, 1-((R)-2-(5-fluoro-2-methoxyphenyl)-2-(2-methoxy-ethoxy)ethyl)-5-methyl-3-((R)-1-methyl-2-oxopyrrolidin-3-yl)-6-(2H-1,2,3-triazol-2-yl)thieno[2,3-d]pyrimidine-2,4(1H, 3H)-dione]",A (provided a compound having from 70% to 84% control of barley powdery mildew),10 to 100,2.1 to 4,2.1 to 4,2.1 to 4,2,> 50,> 50,2,> 50,> 50,10,> 50,> 85,2 to 10
"COCCO[C@@H](Cn1c(=O)n([C@H]2CCCNC2=O)c(=O)c2c(C)c(-n3nccn3)sc21)c1cc(F)ccc1OC [Compound I-29, 1-((R)-2-(5-fluoro-2-methoxyphenyl)-2-(2-methoxy-ethoxy)ethyl)-5-methyl-3-((S)-2-oxopiperidin-3-yl)-6-(2H-1,2,3-triazol-2-yl)thieno[2,3-d]pyrimidine-2,4(1H,3H)-dione]",C (provided a compound having from 25 to 49% control of barley powdery mildew),10 to 100,2.1 to 4,2.1 to 4,2.1 to 4,10,> 50,> 50,10,> 50,> 50,> 50,> 50,70 to 84,0.7 to 2
"COCCO[C@@H](Cn1c(=O)n([C@@H]2CCCNC2=O)c(=O)c2c(C)c(-n3nccn3)sc21)c1cc(F)ccc1OC [Compound I-30, 1-((R)-2-(5-fluoro-2-methoxyphenyl)-2-(2-methoxy-ethoxy)ethyl)-5-methyl-3-((R)-2-oxopiperidin-3-yl)-6-(2H-1,2,3-triazol-2-yl)thieno[2,3-d]pyrimidine-2,4(1H,3H)-dione]",D (provided a compound having <25% control of barley powdery mildew),10 to 100,2.1 to 4,2.1 to 4,2.1 to 4,10,> 50,> 50,> 50,> 50,> 50,> 50,> 50,50 to 69,0.7 to 2
"COCCO[C@@H](Cn1c(=O)n([C@H]2CCCN(C)C2=O)c(=O)c2c(C)c(-n3nccn3)sc21)c1cc(F)ccc1OC [Compound I-31, 1-((R)-2-(5-fluoro-2-methoxyphenyl)-2-(2-methoxy-ethoxy)ethyl)-5-methyl-3-((S)-1-methyl-2-oxopiperidin-3-yl)-6-(2H-1,2,3-triazol-2-yl)thieno[2,3-d]pyrimidine-2,4(1H,3H)-dione]",B (provided a compound having from 50 to 69% control of barley powdery mildew),10 to 100,2.1 to 4,2.1 to 4,2.1 to 4,10,> 50,> 50,2,2,> 50,> 50,> 50,70 to 84,0.7 to 2
